Data taken from ChEMBL document CHEMBL5113453, “Design, synthesis, and biological evaluation of a new series of pyrazole derivatives: Discovery of potent and selective JNK3 kinase inhibitors” (Bioorg Med Chem, 2022).
pIC50: −log10 of the molar value.

How the values were obtained:
Assay type in all cases: functional, cell-based
CCRF-CEM = assay: Antiproliferative activity against human CCRF-CEM cells measured after 48 hrs by SRB assay
HL-60(TB) = assay: Antiproliferative activity against human HL-60(TB) cells measured after 48 hrs by SRB assay
MOLT-4 = assay: Antiproliferative activity against human MOLT-4 cells measured after 48 hrs by SRB assay
RPMI-8226 = assay: Antiproliferative activity against human RPMI-8226 cells measured after 48 hrs by SRB assay
SR = assay: Antiproliferative activity against human SR cells measured after 48 hrs by SRB assay
A549 = assay: Antiproliferative activity against human A549 cells measured after 48 hrs by SRB assay
NCI-H23 = assay: Antiproliferative activity against human NCI-H23 cells measured after 48 hrs by SRB assay
NCI-H522 = assay: Antiproliferative activity against human NCI-H522 cells measured after 48 hrs by SRB assay
COLO 205 = assay: Antiproliferative activity against human COLO 205 cells measured after 48 hrs by SRB assay
HCC 2998 = assay: Antiproliferative activity against human HCC 2998 cells measured after 48 hrs by SRB assay
HCT-116 = assay: Antiproliferative activity against human HCT-116 cells measured after 48 hrs by SRB assay
HCT-15 = assay: Antiproliferative activity against human HCT-15 cells measured after 48 hrs by SRB assay
HT-29 = assay: Antiproliferative activity against human HT-29 cells measured after 48 hrs by SRB assay
SW-620 = assay: Antiproliferative activity against human SW-620 cells measured after 48 hrs by SRB assay
SNB-19 = assay: Antiproliferative activity against human SNB-19 cells measured after 48 hrs by SRB assay
Malme-3M = assay: Antiproliferative activity against human Malme-3M cells measured after 48 hrs by SRB assay
M14 = assay: Antiproliferative activity against human M14 cells measured after 48 hrs by SRB assay
MDA-MB-435 = assay: Antiproliferative activity against human MDA-MB-435 cells measured after 48 hrs by SRB assay
SK-MEL-2 = assay: Antiproliferative activity against human SK-MEL-2 cells measured after 48 hrs by SRB assay
SK-MEL-5 = assay: Antiproliferative activity against human SK-MEL-5 cells measured after 48 hrs by SRB assay
OVCAR-3 = assay: Antiproliferative activity against human OVCAR-3 cells measured after 48 hrs by SRB assay
OVCAR-4 = assay: Antiproliferative activity against human OVCAR-4 cells measured after 48 hrs by SRB assay
OVCAR-5 = assay: Antiproliferative activity against human OVCAR-5 cells measured after 48 hrs by SRB assay
OVCAR-8 = assay: Antiproliferative activity against human OVCAR-8 cells measured after 48 hrs by SRB assay
SK-OV-3 = assay: Antiproliferative activity against human SK-OV-3 cells measured after 48 hrs by SRB assay
ACHN = assay: Antiproliferative activity against human ACHN cells measured after 48 hrs by SRB assay
CAKI-1 = assay: Antiproliferative activity against human CAKI-1 cells measured after 48 hrs by SRB assay
RXF 393 = assay: Antiproliferative activity against human RXF 393 cells measured after 48 hrs by SRB assay
SN12C = assay: Antiproliferative activity against human SN12C cells measured after 48 hrs by SRB assay
TK-10 = assay: Antiproliferative activity against human TK-10 cells measured after 48 hrs by SRB assay
UO-31 = assay: Antiproliferative activity against human UO-31 cells measured after 48 hrs by SRB assay
PC-3 = assay: Antiproliferative activity against human PC-3 cells measured after 48 hrs by SRB assay
DU-145 = assay: Antiproliferative activity against human DU-145 cells measured after 48 hrs by SRB assay
MCF7 = assay: Antiproliferative activity against human MCF7 cells measured after 48 hrs by SRB assay
MDA-MB-231 = assay: Antiproliferative activity against human MDA-MB-231 cells measured after 48 hrs by SRB assay
Hs-578T = assay: Antiproliferative activity against human Hs-578T cells measured after 48 hrs by SRB assay
WI-38 = assay: Antiproliferative activity against human WI-38 cells measured by MTT assay

**Q.** With `O=C1c2ccccc2-c2n[nH]c3cccc1c23` as the compound, how does the pIC50 (CCRF-CEM; 48 h) read?
**A.** 4.80

**Q.** What about the TGI (CCRF-CEM; time 48 hrs) of the same compound?
**A.** > 100 µM

**Q.** And the pIC50 (HL-60(TB); HL-60, 48 h)?
**A.** 4.38

**Q.** What about the TGI (HL-60(TB); HL-60, time 48 hrs) of the same compound?
**A.** > 100 µM

**Q.** And the pIC50 (MOLT-4; MOLT-4, 48 h)?
**A.** 4.69

**Q.** And the TGI (MOLT-4; MOLT-4, time 48 hrs)?
**A.** > 100 µM

**Q.** What about the pIC50 (RPMI-8226; RPMI-8226, 48 h) of the same compound?
**A.** 4.73

**Q.** What about the TGI (RPMI-8226; RPMI-8226, time 48 hrs) of the same compound?
**A.** > 100 µM

**Q.** And the pIC50 (SR; 48 h)?
**A.** 4.88

**Q.** And the TGI (SR; time 48 hrs)?
**A.** > 100 µM

**Q.** What about the pIC50 (A549; A549, 48 h) of the same compound?
**A.** 4.83

**Q.** And the TGI (A549; A549, time 48 hrs)?
**A.** > 100 µM

**Q.** And the pIC50 (NCI-H23; NCI-H23, 48 h)?
**A.** 4.62

**Q.** What about the TGI (NCI-H23; NCI-H23, time 48 hrs) of the same compound?
**A.** 58.1 µM

**Q.** What about the pIC50 (NCI-H522; NCI-H522, 48 h) of the same compound?
**A.** 4.91

**Q.** What about the TGI (NCI-H522; NCI-H522, time 48 hrs) of the same compound?
**A.** 50.4 µM

**Q.** And the pIC50 (COLO 205; COLO 205, 48 h)?
**A.** 4.71

**Q.** And the TGI (COLO 205; COLO 205, time 48 hrs)?
**A.** > 100 µM

**Q.** What about the pIC50 (HCC 2998; HCC 2998, 48 h) of the same compound?
**A.** 5.02

**Q.** And the TGI (HCC 2998; HCC 2998, time 48 hrs)?
**A.** 54.6 µM

**Q.** What about the pIC50 (HCT-116; HCT-116, 48 h) of the same compound?
**A.** 4.35

**Q.** What about the TGI (HCT-116; HCT-116, time 48 hrs) of the same compound?
**A.** > 100 µM

**Q.** And the pIC50 (HCT-15; HCT-15, 48 h)?
**A.** 5.09

**Q.** What about the TGI (HCT-15; HCT-15, time 48 hrs) of the same compound?
**A.** > 100 µM

**Q.** And the pIC50 (HT-29; HT-29, 48 h)?
**A.** 4.59

**Q.** And the TGI (HT-29; HT-29, time 48 hrs)?
**A.** > 100 µM

**Q.** What about the pIC50 (SW-620; SW-620, 48 h) of the same compound?
**A.** 4.96

**Q.** What about the TGI (SW-620; SW-620, time 48 hrs) of the same compound?
**A.** > 100 µM

**Q.** What about the pIC50 (SNB-19; SNB-19, 48 h) of the same compound?
**A.** 4.30

**Q.** And the TGI (SNB-19; SNB-19, time 48 hrs)?
**A.** > 100 µM

**Q.** And the pIC50 (Malme-3M; 48 h)?
**A.** 4.78

**Q.** What about the TGI (Malme-3M; time 48 hrs) of the same compound?
**A.** 58.9 µM

**Q.** And the pIC50 (M14; M14, 48 h)?
**A.** < 4.00

**Q.** And the TGI (M14; M14, time 48 hrs)?
**A.** > 100 µM

**Q.** What about the pIC50 (MDA-MB-435; MDA-MB-435, 48 h) of the same compound?
**A.** 4.89

**Q.** What about the TGI (MDA-MB-435; MDA-MB-435, time 48 hrs) of the same compound?
**A.** > 100 µM

**Q.** What about the pIC50 (SK-MEL-2; SK-MEL-2, 48 h) of the same compound?
**A.** 4.54

**Q.** What about the TGI (SK-MEL-2; SK-MEL-2, time 48 hrs) of the same compound?
**A.** > 100 µM

**Q.** What about the pIC50 (SK-MEL-5; SK-MEL-5, 48 h) of the same compound?
**A.** 4.84

**Q.** What about the TGI (SK-MEL-5; SK-MEL-5, time 48 hrs) of the same compound?
**A.** 37.5 µM

**Q.** And the pIC50 (OVCAR-3; OVCAR-3, 48 h)?
**A.** 4.82

**Q.** What about the TGI (OVCAR-3; OVCAR-3, time 48 hrs) of the same compound?
**A.** 92 µM

**Q.** And the pIC50 (OVCAR-4; OVCAR-4, 48 h)?
**A.** 4.50

**Q.** And the TGI (OVCAR-4; OVCAR-4, time 48 hrs)?
**A.** > 100 µM

**Q.** And the pIC50 (OVCAR-5; OVCAR-5, 48 h)?
**A.** 4.61

**Q.** What about the TGI (OVCAR-5; OVCAR-5, time 48 hrs) of the same compound?
**A.** 85.5 µM

**Q.** And the pIC50 (OVCAR-8; OVCAR-8, 48 h)?
**A.** 4.66

**Q.** What about the TGI (OVCAR-8; OVCAR-8, time 48 hrs) of the same compound?
**A.** > 100 µM

**Q.** And the pIC50 (SK-OV-3; SK-OV-3, 48 h)?
**A.** 4.68

**Q.** What about the TGI (SK-OV-3; SK-OV-3, time 48 hrs) of the same compound?
**A.** > 100 µM

**Q.** What about the pIC50 (ACHN; 48 h) of the same compound?
**A.** 5.18

**Q.** And the TGI (ACHN; time 48 hrs)?
**A.** > 100 µM

**Q.** And the pIC50 (CAKI-1; CAKI-1, 48 h)?
**A.** 5.45

**Q.** What about the TGI (CAKI-1; CAKI-1, time 48 hrs) of the same compound?
**A.** 18.2 µM

**Q.** What about the pIC50 (RXF 393; RXF 393, 48 h) of the same compound?
**A.** 4.68

**Q.** And the TGI (RXF 393; RXF 393, time 48 hrs)?
**A.** > 100 µM

**Q.** And the pIC50 (SN12C; 48 h)?
**A.** 4.83

**Q.** And the TGI (SN12C; time 48 hrs)?
**A.** > 100 µM

**Q.** And the pIC50 (TK-10; TK-10, 48 h)?
**A.** 5.23

**Q.** What about the TGI (TK-10; TK-10, time 48 hrs) of the same compound?
**A.** 52 µM

**Q.** And the pIC50 (UO-31; UO-31, 48 h)?
**A.** 4.98

**Q.** What about the TGI (UO-31; UO-31, time 48 hrs) of the same compound?
**A.** > 100 µM

**Q.** What about the pIC50 (PC-3; PC-3, 48 h) of the same compound?
**A.** 4.63

**Q.** What about the TGI (PC-3; PC-3, time 48 hrs) of the same compound?
**A.** > 100 µM

**Q.** What about the pIC50 (DU-145; DU-145, 48 h) of the same compound?
**A.** 4.55

**Q.** What about the TGI (DU-145; DU-145, time 48 hrs) of the same compound?
**A.** > 100 µM

**Q.** And the pIC50 (MCF7; MCF7, 48 h)?
**A.** 4.31

**Q.** And the TGI (MCF7; MCF7, time 48 hrs)?
**A.** > 100 µM

**Q.** And the pIC50 (MDA-MB-231; MDA-MB-231, 48 h)?
**A.** 4.19

**Q.** And the TGI (MDA-MB-231; MDA-MB-231, time 48 hrs)?
**A.** > 100 µM

**Q.** What about the pIC50 (Hs-578T; 48 h) of the same compound?
**A.** 4.26

**Q.** And the TGI (Hs-578T; time 48 hrs)?
**A.** > 100 µM

**Q.** What about the pIC50 (WI-38) of the same compound?
**A.** < 4.70
